This assay concerns BDF1 mice, P388 leukemia ip, median survival T/C. Put plainly: NCI In Vivo Anticancer Drug Screen. Data for tumor model P388 Leukemia (intraperitoneal) in B6D2F1 (BDF1) mice. Particulars: endpoint: median survival time, higher = longer survival. Put shortly:
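Read-out is survival of treated animals expressed relative to the vehicle group, as a T/C ratio.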

[1] abbreviates: dose: 100.0 mg/kg/injection, schedule: Q01DX009 (ip), vehicle: saline with Tween-80.
The mark [2] stands for this setting: dose: 200.0 mg/kg/injection, schedule: Q01DX009 (ip), vehicle: saline with Tween-80.
[3] abbreviates: dose: 400.0 mg/kg/injection, schedule: Q01DX009 (ip), vehicle: saline with Tween-80.
Setting [4] is: dose: 50.0 mg/kg/injection, schedule: Q01DX005 (ip), vehicle: saline with Tween-80.
Where [5] appears, read: dose: 100.0 mg/kg/injection, schedule: Q01DX005 (ip), vehicle: saline with Tween-80.
Where [6] appears, read: dose: 50.0 mg/kg/injection, schedule: Q04DX003 (ip), vehicle: saline with Tween-80.
[7] abbreviates: dose: 50.0 mg/kg/injection, schedule: Q01DX009 (ip), vehicle: saline with Tween-80.
Setting [8] is: dose: 100.0 mg/kg/injection, schedule: Q04DX003 (ip), vehicle: saline with Tween-80.
[9] abbreviates: dose: 200.0 mg/kg/injection, schedule: Q04DX003 (ip), vehicle: saline with Tween-80.
Where [10] appears, read: dose: 400.0 mg/kg/injection, schedule: Q04DX003 (ip), vehicle: saline with Tween-80.

“And” between values parts separate entries of the source, which are not always exact repeats. Identical values can stand only once. Inconclusive results and toxic doses are left out.

With `c1ccc2c(c1)C1=NCCN1c1ccccc1-2`, the T/C reads like this: (dose: 5.3 mg/kg/injection, schedule: Q01DX009 (ip), vehicle: Klucel (hydroxypropylcellulose) (HPC)) 86 % of control; (dose: 8.0 mg/kg/injection, schedule: Q01DX009 (ip), vehicle: Klucel (hydroxypropylcellulose) (HPC)) 86 % of control; (dose: 10.0 mg/kg/injection, schedule: Q01DX009 (ip), vehicle: Klucel (hydroxypropylcellulose) (HPC)) 115 % of control; (dose: 12.0 mg/kg/injection, schedule: Q01DX009 (ip), vehicle: Klucel (hydroxypropylcellulose) (HPC)) 95 % of control; (dose: 17.7 mg/kg/injection, schedule: Q01DX009 (ip), vehicle: Klucel (hydroxypropylcellulose) (HPC)) 108 % of control; (dose: 20.0 mg/kg/injection, schedule: Q01DX009 (ip), vehicle: Klucel (hydroxypropylcellulose) (HPC)) 110 % of control. The T/C (dose: 40.0 mg/kg/injection, schedule: Q01DX009 (ip), vehicle: Klucel (hydroxypropylcellulose) (HPC)) was 150 % of control.

Turning to `Cc1ccc2oc(=O)c(-c3cc4oc(=O)sc4cc3O)c(O)c2c1`, the T/C (dose: 100.0 mg/kg/injection, schedule: Q01DX001 (ip), vehicle: Klucel (hydroxypropylcellulose) (HPC)) was 100 % of control; the T/C (dose: 200.0 mg/kg/injection, schedule: Q01DX001 (ip), vehicle: Klucel (hydroxypropylcellulose) (HPC)) was 100 % of control; the T/C (dose: 400.0 mg/kg/injection, schedule: Q01DX001 (ip), vehicle: Klucel (hydroxypropylcellulose) (HPC)) was 106 % of control.

`O=C(O)Cn1c(C(F)(F)F)nc2nc(Cl)c(Cl)nc21`: the T/C was 90 % of control under setting [1], 90 % of control under setting [2] and 100 % of control under setting [3].

Regarding `CC(=O)NC1=C(N2CC2)C(=O)C(NC(C)=O)=C(N2CC2)C1=O`, the T/C (dose: 0.12 mg/kg/injection, schedule: Q01DX009 (ip), vehicle: saline) was 155 % of control; the T/C (dose: 0.25 mg/kg/injection, schedule: Q01DX009 (ip), vehicle: saline) was 166 % of control and 195 % of control; the T/C (dose: 0.5 mg/kg/injection, schedule: Q01DX009 (ip), vehicle: saline) is 270 % of control and 214 % of control; the T/C (dose: 1.0 mg/kg/injection, schedule: Q01DX009 (ip), vehicle: saline) is 285 % of control and 190 % of control; the T/C (dose: 2.0 mg/kg/injection, schedule: Q01DX009 (ip), vehicle: saline) is 109 % of control.

As for `CCS(=O)c1ncc2cnccn12` (configuration not stated), the T/C was 109 % of control (dose: 12.5 mg/kg/injection, schedule: Q04DX003 (ip), vehicle: water); 92 % of control (dose: 25.0 mg/kg/injection, schedule: Q04DX003 (ip), vehicle: water); 102 % of control (dose: 50.0 mg/kg/injection, schedule: Q01DX009 (ip), vehicle: water); 100 % of control and 101 % of control (dose: 50.0 mg/kg/injection, schedule: Q04DX003 (ip), vehicle: water); 94 % of control (dose: 100.0 mg/kg/injection, schedule: Q01DX009 (ip), vehicle: water).

As to `Cc1cc(Cl)c(C)c(Cl)c1Cl`, the T/C by setting is: under setting [1], 90 % of control; under setting [2], 95 % of control; under setting [3], 86 % of control.

`CC(=O)OC(=O)C(Cc1ccccc1)NC(=O)C(N)CCCN=C(N)N` (configuration not stated): the T/C was 98 % of control under setting [4] and 103 % of control under setting [5].

For `CN(S(=O)(=O)CC(F)(F)F)S(=O)(=O)C(F)(F)F`, the T/C reads like this: (dose: 6.25 mg/kg/injection, schedule: Q01DX009 (ip), vehicle: saline) 100 % of control; (dose: 25.0 mg/kg/injection, schedule: Q01DX009 (ip), vehicle: saline) 108 % of control; (dose: 100.0 mg/kg/injection, schedule: Q01DX009 (ip), vehicle: saline) 100 % of control.

Turning to `COc1ccc2c(c1)NC(=O)C2(C)SC` (configuration not stated), the T/C was 103 % of control (dose: 12.5 mg/kg/injection, schedule: Q04DX003 (ip), vehicle: saline with Tween-80); 97 % of control (dose: 25.0 mg/kg/injection, schedule: Q04DX003 (ip), vehicle: saline with Tween-80); 106 % of control under setting [6].

In the case of `COC(=O)C(N)CCCCNc1ccc2c(cc1=O)C(NC(C)=O)CCc1cc(OC)c(OC)c(OC)c1-2` (configuration not stated), the T/C reads like this: (dose: 26.0 mg/kg/injection, schedule: Q01DX009 (ip), vehicle: saline with Tween-80) 124 % of control; (dose: 40.0 mg/kg/injection, schedule: Q01DX009 (ip), vehicle: saline with Tween-80) 118 % of control; (dose: 60.0 mg/kg/injection, schedule: Q01DX009 (ip), vehicle: saline with Tween-80) 119 % of control; (dose: 90.0 mg/kg/injection, schedule: Q01DX009 (ip), vehicle: saline with Tween-80) 117 % of control; under setting [2], 170 % of control; (dose: 300.0 mg/kg/injection, schedule: Q01DX009 (ip), vehicle: saline with Tween-80) 159 % of control.

With `Cc1nc2ccccc2n1C[c-]1[c-][c-][c-][c-]1.[Fe].[c-]1[c-][c-][cH-][c-]1`, the T/C under setting [7] is 91 % of control, the T/C under setting [1] was 113 % of control and the T/C under setting [2] is 105 % of control.

On to `O=C1C=C(Nc2ccc(Cl)cc2)C(Nc2ccc(Cl)cc2)=CC1=O`, for which the T/C was 89 % of control (dose: 62.5 mg/kg/injection, schedule: Q01DX009 (ip), vehicle: saline with Tween-80); 87 % of control (dose: 125.0 mg/kg/injection, schedule: Q01DX009 (ip), vehicle: saline with Tween-80); 91 % of control (dose: 250.0 mg/kg/injection, schedule: Q01DX009 (ip), vehicle: saline with Tween-80).

As to `O=CNC(Cc1ccc(O)cc1)C(=O)O` (configuration not stated), the T/C was 110 % of control (dose: 100.0 mg/kg/injection, schedule: Q04DX003 (ip), vehicle: saline); 100 % of control (dose: 200.0 mg/kg/injection, schedule: Q04DX003 (ip), vehicle: saline); 100 % of control (dose: 400.0 mg/kg/injection, schedule: Q04DX003 (ip), vehicle: saline).

On to `Cc1ccc(CBr)c2ccccc12`, for which the T/C was 102 % of control (dose: 6.25 mg/kg/injection, schedule: Q01DX009 (ip), vehicle: saline with Tween-80); 114 % of control (dose: 12.5 mg/kg/injection, schedule: Q01DX009 (ip), vehicle: saline with Tween-80); 124 % of control (dose: 25.0 mg/kg/injection, schedule: Q01DX009 (ip), vehicle: saline with Tween-80); 105 % of control under setting [7]; 121 % of control under setting [1].

On to `O=C(/C=C/C=C/c1ccccc1)c1ccc(Cl)cc1`, for which the T/C is, setting by setting: under setting [1], 115 % of control; under setting [8], 100 % of control; under setting [2], 115 % of control; under setting [9], 90 % of control; under setting [3], 110 % of control; under setting [10], 109 % of control.

Turning to `O=[N+]([O-])c1cc([N+](=O)[O-])c2ccccc2c1NS(=O)(=O)c1ccc(Cl)c(Cl)c1Cl`, the T/C under setting [7] is 104 % of control and the T/C under setting [1] is 120 % of control.

In the case of `O=C(CC(C(=O)c1ccccc1)N1CC1)c1ccccc1` (configuration not stated), the T/C was 90 % of control under setting [6] and 90 % of control under setting [8].

For `CC(C)(O)c1cc(Cl)ccc1Sc1ccccc1`, the T/C runs as follows: under setting [8], 105 % of control; under setting [9], 91 % of control; under setting [10], 108 % of control.

Consider `CCCC(O)(CCC)CC1=NC(C)(C)CO1`, for which the T/C is, setting by setting: (dose: 75.0 mg/kg/injection, schedule: Q04DX003 (ip), vehicle: saline sonified) 110 % of control; (dose: 150.0 mg/kg/injection, schedule: Q04DX003 (ip), vehicle: saline sonified) 105 % of control; (dose: 300.0 mg/kg/injection, schedule: Q04DX003 (ip), vehicle: saline sonified) 100 % of control.

Turning to `O=[N+]([O-])c1ccc(/C=C/c2cccc(/C=C/c3ccc([N+](=O)[O-])cc3)[n+]2[O-])cc1`, the T/C under setting [4] is 96 % of control; the T/C under setting [5] is 94 % of control; the T/C (dose: 200.0 mg/kg/injection, schedule: Q01DX005 (ip), vehicle: saline with Tween-80) was 93 % of control.

With `N=C([Se])c1ncn(C2OC(CO)C(O)C2O)c1N` (configuration not stated), the T/C reads like this: (dose: 6.25 mg/kg/injection, schedule: Q04DX003 (ip), vehicle: saline) 106 % of control; (dose: 12.5 mg/kg/injection, schedule: Q04DX003 (ip), vehicle: saline) 108 % of control; (dose: 25.0 mg/kg/injection, schedule: Q04DX003 (ip), vehicle: saline) 111 % of control; (dose: 50.0 mg/kg/injection, schedule: Q04DX003 (ip), vehicle: saline) 106 % of control.

Values taken from PubChem BioAssay AID328 (DTP/NCI, 2004).
